The results in this text go back to patent US20170065593A1, “Combination” (Novartis AG, priority 2009, published 2017).

Common to all, as to experiment: Cell growth inhibition assay (Cell Titer Glo, 3 days)
Common to all, as to assay type: cell-based, Human

The test system of one assay is MV522. The following applies: MV522 (BRAF_V600E), single agent, mean ± std. As for the experimental part:
(§1) Human tumor cell lines from lung cancer, A427, A549, Calu1, Calu3, Calu6, COR-L23, HOP62, MV522, NCI-H1155, NCI-H1299, NCI-H1355, NCI-H1395, NCI-H157, NCI-H1573, NCI-H1666, NCI-1755, NCI-H1792, NCI-2009, NCI-H2030, NCI-H2122, NCI-H2291, NCI-H23, NCI-H2347, NCI-H358, NCI-H441, NCI-H460, NCI-H650, NCI-H727, SW1573 and SW900 were cultured in RPMI 1640 medium containing 10% fetal bovine serum (FBS). Cell line mutation data was collated for the status for the RAS and RAF genes. The data source is the cancer cell line mutation screening data published as part of the Catalog of Somatic Mutations in Cancer database (COSMIC) (Bamford S. et al. Br. J. Cancer. 2004. 91:355-58) and/or in house DNA sequencing.
(§2) Cells were seeded in a 96-well tissue culture plate (NUNC 136102) of RPMI medium containing 10% FBS at 500-2,000 cells per well. Approximately 24 hours after plating, cells were exposed to ten, two-fold or three-fold serial dilutions of either Compound A or B or the combination of the two agents at a 10:1 molar ratio (Compounds A and B respectively). The final dosing concentration range for Compound A was 2-1000 nM and was 0.2-100 nM for Compound B. Cells were incubated in the presence of compounds for 3 days. ATP levels were determined by adding Cell Titer Glo® (Promega) according to the manufacturer's protocol. Briefly, Cell Titer Glo® was added to each plate, incubated for 20 minutes then luminescent signal was read on the SpectraMax L plate reader with a 0.5 sec integration time. All assays were run at least in duplicate.
(§3) Inhibition of cell growth was estimated after treatment with compound or combination of compounds for three days and comparing the signal to cells treated with vehicle (DMSO). Cell growth was calculated relative to vehicle (DMSO) treated control wells. Concentration of compound that inhibits 50% of control cell growth (IC50) was back-interpolated when y=50% of DMSO treated control wells using nonlinear regression with the equation: […]

The next assay deals with NCI-H1755. Conditions: NCI-H1755 (BRAF_G469A), single agent, mean ± std. Here is the method:
as §1, §2, §3

The next assay has as its system NCI-H1155. The following applies: NCI-H1155 (KRAS_Q61H), single agent, mean ± std. Here is the method: as §1, §2, §3
Another assay has as its system NCI-H1395. The following applies: NCI-H1395 (BRAF_G469A), single agent, mean ± std. As for the experimental part: as §1, §2, §3
The next assay concerns NCI-H650. The following applies: NCI-H650 (KRAS_Q61L), single agent, mean ± std. As for the experimental part:
as §1, §2, §3

Another assay relates to NCI-H727. Conditions: NCI-H727 (KRAS_G12V), single agent, mean ± std. As for the experimental part:
as §1, §2, §3

Another assay has as its system NCI-H2122. The following applies: NCI-H2122 (KRAS_G12C), single agent, mean ± std. As for the experimental part: as §1, §2, §3
Another assay has as its system SW900. Conditions: SW900 (KRAS_G12V), single agent, mean ± std. Here is the method:
as §1, §2, §3

In the next assay the test system is NCI-H460. The following applies: NCI-H460 (KRAS_Q61H), single agent, mean ± std. Here is the method:
as §1, §2, §3

In another assay the test system is SW1573. Conditions: SW1573 (KRAS_G12C), single agent, mean ± std. Here is the method:
as §1, §2, §3

A further assay relates to NCI-H441. The following applies: NCI-H441 (KRAS_G12V), single agent, mean ± std. Here is the method:
as §1, §2, §3

The test system of another assay is HOP62. The following applies: HOP62 (KRAS_G12C), single agent, mean ± std. As for the experimental part:
as §1, §2, §3

In the next assay the test system is Calu1. The following applies: Calu1 (KRAS_G12C), single agent, mean ± std. As for the experimental part: as §1, §2, §3
A further assay relates to NCI-H157. The following applies: NCI-H157 (KRAS_G12R), single agent, mean ± std. As for the experimental part: as §1, §2, §3
A further assay deals with NCI-H1792. Conditions: NCI-H1792 (KRAS_G12C), single agent, mean ± std. As for the experimental part: as §1, §2, §3
For another assay, the system named is NCI-H1666. The following applies: NCI-H1666 (BRAF_G466V), single agent, mean ± std. As for the experimental part: as §1, §2, §3
The subject of the next assay is NCI-H2009. The following applies: NCI-H2009 (KRAS-G12A), single agent, mean ± std. Here is the method:
as §1, §2, §3

In another assay the test system is NCI-H1299. The following applies: NCI-H1299 (NRAS_Q61K), single agent, mean ± std. Here is the method:
as §1, §2, §3

The subject of another assay is Calu6. Conditions: Calu6 (KRAS_Q61K), single agent, mean ± std. Here is the method: as §1, §2, §3
The next assay deals with NCI-H1355. Conditions: NCI-H1355 (KRAS_G13C), single agent, mean ± std. As for the experimental part: as §1, §2, §3
Setting [1] is: Homo sapiens, 72 h, read-out: IC50 Single Agent Compound B.
[2] abbreviates: read-out: IC50 Single Agent Compound A.

Where two headings read alike, the source gives them in different places. Some results are limits rather than exact numbers.

As for `CO[C@H]1C[C@@H]2CC[C@@H](C)[C@@](O)(O2)C(=O)C(=O)N2CCCC[C@H]2C(=O)O[C@H]([C@H](C)C[C@@H]2CC[C@@H](OCCO)[C@H](OC)C2)CC(=O)[C@H](C)/C=C(\C)[C@@H](O)[C@@H](OC)C(=O)[C@H](C)C[C@H](C)/C=C/C=C/C=C/1C` [Compound B, everolimus], the IC50 in the assay with MV522 (setting [1]), in the assay with NCI-H1755 (setting [1]), with NCI-H1155 (setting [1]), in the assay with NCI-H1395 (setting [1]), in the assay on NCI-H650 (setting [1]) and in the assay on NCI-H727 (setting [1]) was over 100 nM each time. For the same compound, the IC50 is 97 ± 37 nM in the assay on NCI-H2122 (setting [1]); over 100 nM with SW900 (setting [1]); over 70 nM with NCI-H460 (setting [1]); over 100 nM in the assay with SW1573 (setting [1]); over 100 nM with NCI-H441 (setting [1]); over 100 nM in the assay on HOP62 (Homo sapiens, HOP-62, 72 h, read-out: IC50 Single Agent Compound B). For the same compound, the IC50 is over 100 nM with Calu1 (Homo sapiens, Calu-1, 72 h, read-out: IC50 Single Agent Compound B); over 100 nM in the assay with NCI-H157 (setting [1]); over 100 nM in the assay with NCI-H1792 (setting [1]); over 100 nM with NCI-H1666 (setting [1]); over 100 nM with NCI-H2009 (setting [1]); over 100 nM with NCI-H1299 (setting [1]). Further, the IC50 in the assay on Calu6 (Homo sapiens, Calu-6, 72 h, read-out: IC50 Single Agent Compound B) is over 100 nM; in the assay on NCI-H1355 (setting [1]) it was over 100 nM.
Consider “N-{3-[3-cyclopropyl-5-(2-fluoro-4-iodo-phenylamino)6,8-dimethyl;-2,4,7-trioxo-3,4,6,7-tetrahydro-2H-pyrido[4,3-d]pyrimidin-1-yl]phenyl}acetamide [Compound A]”, for which the IC50 in the assay on MV522 (setting [2]) was 1 nM; with NCI-H1755 (setting [2]), 45 ± 6 nM; in the assay on NCI-H1155 (setting [2]), over 1000 nM; with NCI-H1395 (setting [2]), over 1000 nM; with NCI-H650 (setting [2]), 4 ± 2 nM; in the assay on NCI-H727 (setting [2]) it was 3 ± 1 nM. In addition, the IC50 in the assay with NCI-H2122 (setting [2]) was 5 ± 1 nM; with SW900 (setting [2]), 141 ± 2 nM; in the assay with NCI-H460 (setting [2]), 37 ± 11 nM; with SW1573 (setting [2]) it was over 1000 nM; with NCI-H441 (setting [2]), over 1000 nM; with HOP62 (setting [2]), over 1000 nM. The IC50 is over 1000 nM with Calu1 (setting [2]); over 1000 nM in the assay on NCI-H157 (setting [2]); 59 ± 23 nM with NCI-H1792 (setting [2]); 44 ± 46 nM in the assay on NCI-H1666 (setting [2]); 204 ± 78 nM with NCI-H2009 (setting [2]); 277 ± 92 nM in the assay with NCI-H1299 (setting [2]). Further, the IC50 turned out to be 5 nM with Calu6 (setting [2]) and 67 ± 24 nM in the assay with NCI-H1355 (setting [2]).
